Experimental data taken from patent US10765690B2, “TLR4 agonists and compositions thereof and their use in the treatment of cancer” (GlaxoSmithKline Intellectual Property Development Limited, priority 2015, dated 2020).
Where “and” joins values, the source holds several entries; their conditions need not be identical. Identical values can stand only once.

How the values were obtained:
[1] = system: CT-26 colorectal tumor cells; assay: CT-26 syngeneic colon carcinoma model, escalating i.p. doses (Example 9); type: in vivo, Balb/c mice
Text: The CT26 mouse colon carcinoma (CT26.WT; ATCC #CRL-2638) cell line was obtained from ATCC. It is an N-nitroso-N-methylurethane-(NNMU) induced, undifferentiated colon carcinoma cell line known in the art. For example, it is described in: Wang M, et al. Active immunotherapy of cancer with a nonreplicating recombinant fowlpox virus encoding a model tumor-associated antigen. J. Immunol. 154: 4685-4692, 1995 (PubMed: 7722321), which is incorporated by reference in its entirety herein. For preparation of tumor cells, A frozen (−140° C.) vial of CT-26 (mouse colon carcinoma cells), from ATCC (cat # CRL-2638, lot #59227052) are thawed and cultured in basic RPMI (with 10% FBS) media over the following week.
CT-26 cells (passage 12) are harvested from the flask in complete medium. Cells are centrifuged and resuspended in RPMI (without FBS), this step is repeated 3 times. Cell density and viability are checked via trypan blue exclusion. Cells are then diluted to desired density (5×10^5 cells per mL) and kept on ice.
Escalating doses of CRX 527 are evaluated for their efficacy in reducing tumor growth. Animals are weighed and innoculated on the right hind quarter with 0.5×10^5 CT26 tumor cells per mouse on Day 0. A total of 130 mice are inoculated with tumor cells—assuming 30% failure rate (either too big or too small at time of start of study), the goal is to have n=10 for each group. After tumor cell innoculation, tumor growth and total body weight are measured 3 times a week for the duration of the study. Randomization occurs on day 10 or 11 when the average tumor volume is approximately 100 mm^3. Begining on the day of randomization, animals are dosed with CRX 527 or vehicle i.p. biweekly, for a total of 6 doses. Mice remain on study until tumors reach >2000 cu mm for two consecutive measurements, they are removed from study for other reasons (i.e. weight loss >20%, ulceration on tumor, etc.) or until the end of the study. After euthanization the tumors may be removed and subject to dissociation for flow analysis and/or FFPE for IHC analysis.
The above protocol was used to generate the results in FIG. 17 at the dosages indicated. In almost every case, Balb/c mice that were inoculated with 0.5×10^5 CT-26 colorectal tumor cells on the right hind quarter developed tumors that, when treated i.p. with vehicle (2% glycerol) only, and progressed as expected. […] FIG. 17.

[2] = system: Murine EMT6 breast epithelial cells; assay: EMT6 breast epithelial syngeneic solid tumor model; type: in vivo, Balb/c mice
Procedure: The in vivo anti-tumor efficacy of the TLR4 agonist (CRX-601) was assessed in the murine EMT6 breast epithelial syngeneic solid tumor model as a monotherapy versus control and anti-PD-1 treatment. Seven to eight week old female Balb/c mice (BALB/cAnNHsd, Envigo) were used in these studies. Murine EMT6 breast epithelial cells (ATCC catalog number lot # CRL-2755) were cultured in RPMI growth medium supplemented with 10% fetal bovine serum (FBS) in a humidified 37° C. incubator with 5% CO2. EMT6 cells cultured in logarithmic growth were harvested from tissue culture flasks and centrifuged for 5 minutes at 450×g at 4° C. for ten minutes to pellet cells. The supernatant was discarded, and cells were washed in ice cold phosphate buffered saline (PBS) without calcium and magnesium and centrifuged again for 5 minutes at 450×g at 4′C for ten minutes to pellet cells. The cells were resuspended in sterile RPMI media without FBS and adjusted to a cell concentration of 1×10^6 cells/ml. 100 μl of the cell stock was implanted via subcutaneous injection into the right flank of each Balb/c mouse. After seven or nine days when the average tumor size reached approximately 100 mm^3, mice were randomized into study cohorts according to tumor size and the first treatment dose was given. The TLR4 agonist (CRX-601) or vehicle was dosed via a systemic intravenous dose once per week for three total doses. The CRX-601 vehicle was 0.5% Glycerol/4% Dextrose, eE 810115-V. The rat anti-mouse PD-1 receptor antibody (clone RMP1-14, BioXCell catalog # BE0146, lot #5792-599016J1) or Rat IgG2a isotype control antibody (BioXCell catalog # BE0089,lot #601416M1B) was dosed via an intraperitoneal injection given every other day for a total of three doses, with the first dose given concurrently with the first CRX-601 dose. Caliper measurements were taken three times per week to assess tumor growth, and mice with tumors >2,000 mm^3 for 2 consecutive measurements or mice with tumors which formed open ulcers were removed from the study. Tumor volume was calculated using the formula (0.52)×(Length)×(Width2). All studies were conducted in accordance with the GSK Policy on the Care, Welfare and Treatment of Laboratory Animals and were reviewed by the Institutional Animal Care and Use Committee at GSK. To determine significance of tumor growth inhibition, tumor volumes 19 days post first dose were compared between the different treatment groups. Treatments were compared by standard ANOVA methods followed by FDR adjustment for multiplicity. Response is square root of volume, for homoscedasticity (equal variance) reasons. Kaplan-Meier (KM) method was carried out to estimate the survival probability of different treatment groups at a given time. For these survival analyses, “Death” means crossing the tumor volume cutoff (2000 mm3). “Survival” means proportion of mice not “Dead”, and “Survival time” means days until “Death”. If a mouse crossed the volume cutoff between two measurement days, then the day of “Death” was estimated by linear interpolation. If a mouse crossed the volume cutoff more than once, the first crossing was used. Treatments were compared by the standard log-rank test for two treatments. The log-rank p-values were adjusted for multiplicity using the FDR (false discovery rate) method. Significance was defined as FDR<=0.05. All calculations and graphs were done using R software, version 3.2.3.

CCCCCCCCCCC[C@H](CC(=O)N[C@H]1[C@H](OC[C@H](NC(=O)C[C@@H](CCCCCCCCCCC)OCCCCCCCCCC)C(=O)O)O[C@H](CO)[C@@H](OP(=O)(O)O)[C@@H]1OC(=O)C[C@@H](CCCCCCCCCCC)OCCCCCCCCCC)OCCCCCCCCCC [CRX-601]
Mean % Inhibition ([1]; 4 ug, study day 14 (9/16)): −59.63% | Mean % Inhibition ([1]; 4 ug, study day 17 (9/19)): 4.57% | Mean % Inhibition ([1]; 4 ug, study day 21 (9/23)): −1.55% | Mean % Inhibition ([1]; 4 ug, study day 24 (9/26)): 21.73% | Mean % Inhibition ([1]; 4 ug, study day 28 (9/30)): 7.65% | Mean % Inhibition ([1]; 4 ug, study day 31 (10/3)): −34.14% | Mean % Inhibition ([1]; 20 ug, study day 14 (9/16)): 42.34% | Mean % Inhibition ([1]; 20 ug, study day 17 (9/19)): 69.46% | Mean % Inhibition ([1]; 20 ug, study day 21 (9/23)): 50.75% | Mean % Inhibition ([1]; 20 ug, study day 24 (9/26)): 66.96% | Mean % Inhibition ([1]; 20 ug, study day 28 (9/30)): 50.75% | Mean % Inhibition ([1]; 20 ug, study day 31 (10/3)): −18.27% | Mean % Inhibition ([1]; 100 ug, study day 14 (9/16)): 68.20% | Mean % Inhibition ([1]; 100 ug, study day 17 (9/19)): 92.51% | Mean % Inhibition ([1]; 100 ug, study day 21 (9/23)): 98.50% | Mean % Inhibition ([1]; 100 ug, study day 24 (9/26)): 93.21% | Mean % Inhibition ([1]; 100 ug, study day 28 (9/30)): 94.68% | Mean % Inhibition ([1]; 100 ug, study day 31 (10/3)): 80.15% | increase in survival compared to vehicle group 1 ([2]; 25 ug CRX-601 IV, by day 33 post EMT6 inoculation, p-value=0.03): statistically significant | mice remained on study ([2]; 25 ug CRX-601 group, day 33): 6 mice | tumor free mice ([2]; 25 ug CRX-601 group, day 33): 4 mice | tumor volumes of remaining tumor-bearing mice ([2]; 25 ug CRX-601 group, day 33, individual mice): 649 mm^3 and 382 mm^3 | tumor growth inhibition compared to vehicle group 1 ([2]; 25 ug CRX-601 intravenous once per week x3 (+200 ug Rat IgG2a), 19 days after the initial dose, p-value<0.001): statistically significant tumor growth inhibition | tumor growth inhibition compared to anti-PD-1 treatment group 3 ([2]; 25 ug CRX-601 intravenous once per week x3, 19 days after the initial dose, p-value=0.041): statistically significant tumor growth inhibition
